3 compounds from patent US20250353891A1 (MEDIMMUNE LIMITED, priority 2022, published 2025) can be followed below.

Test [1] deals with human GLP-1 receptor (hGLP-1R) (Homo sapiens, UniProt P43220). In words: cAMP production (HTRF) in CHO cells expressing hGLP-1R. The class given is cell-based. As to conditions: for EC50: cAMP in CHO hGLP-1R cells, geometric mean, read-out: hGLP-1R EC50; for % Relative Potency Ratio: % GLP-1R activity relative to GLP-1 / % GlucR activity relative to glucagon. Also on record: expressed in transfected cells. A digest of the protocol: (§1)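 Cells were resuspended in assay buffer at batch-optimized density, typically 1×10^5 cells/mL for hGLP-1R and 2×10^5 cells/mL for hGCGR. After 30 min incubation at room temperature with compound, cAMP was measured by two-step HTRF. EC50 values came from 4-parameter logistic fits of % Delta F.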

For test [2], the target named is human glucagon receptor (hGCGR) (Homo sapiens, UniProt P47871). Nature of the test: cAMP production (HTRF) in CHO cells expressing hGCGR. It counts as cell-based. Also on record: expressed in transfected cells. Particulars: cAMP in CHO hGCGR cells, geometric mean, read-out: hGluc-R EC50. Summed up:
as §1

Where [3] appears, read: Table 7, peptides modified at position 20.
Where [4] appears, read: Table 6, peptides modified at position 17.

Where two headings read alike, the source gives them in different places. Starred links: 1 amine or outer side, 2 acyl side, 3 side chain; linkers in the order of their positions; H or OH if unused. Non-standard residues stand in square brackets, D forms with d. Residues, ends and D or L forms follow the SMILES beside them. Groups on a side chain read outwards from the residue. *: point of attachment. C18 diacid = O=C(O)CCCCCCCCCCCCCCCCC(=O)*; γGlu = O=C(O)[C@H](CCC(=O)[*:2])N[*:1]; αMeF = C[C@](N)(Cc1ccccc1)C(=O)O; AEEA = NCCOCCOCC(=O)O; Aib = CC(C)(N)C(=O)O

Chain of human GLP-1 receptor (hGLP-1R) (P43220 24-463): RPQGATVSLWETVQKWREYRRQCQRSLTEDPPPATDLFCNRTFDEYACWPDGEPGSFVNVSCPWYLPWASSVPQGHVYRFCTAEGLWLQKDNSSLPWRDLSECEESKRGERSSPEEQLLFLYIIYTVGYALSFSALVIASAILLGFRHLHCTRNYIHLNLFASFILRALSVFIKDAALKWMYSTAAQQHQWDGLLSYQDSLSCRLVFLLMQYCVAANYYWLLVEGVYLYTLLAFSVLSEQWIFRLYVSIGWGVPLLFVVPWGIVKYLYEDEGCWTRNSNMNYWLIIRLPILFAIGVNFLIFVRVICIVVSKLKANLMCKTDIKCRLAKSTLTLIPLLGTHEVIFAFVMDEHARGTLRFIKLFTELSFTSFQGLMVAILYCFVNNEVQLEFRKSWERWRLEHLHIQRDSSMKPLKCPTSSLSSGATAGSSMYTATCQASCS
Chain of human glucagon receptor (hGCGR) (P47871 26-477): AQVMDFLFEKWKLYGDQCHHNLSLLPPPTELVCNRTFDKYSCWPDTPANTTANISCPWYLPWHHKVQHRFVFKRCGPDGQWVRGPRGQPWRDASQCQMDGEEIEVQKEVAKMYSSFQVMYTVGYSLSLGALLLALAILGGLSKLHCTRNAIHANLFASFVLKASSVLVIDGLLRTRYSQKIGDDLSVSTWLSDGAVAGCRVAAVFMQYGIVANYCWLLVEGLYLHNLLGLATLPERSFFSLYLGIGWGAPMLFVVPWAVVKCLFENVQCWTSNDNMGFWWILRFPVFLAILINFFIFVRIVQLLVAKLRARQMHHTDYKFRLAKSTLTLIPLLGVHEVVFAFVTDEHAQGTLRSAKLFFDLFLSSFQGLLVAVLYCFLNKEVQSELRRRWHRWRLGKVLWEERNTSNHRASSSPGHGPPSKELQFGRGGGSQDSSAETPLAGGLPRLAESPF

As for `CC[C@H](C)[C@H](NC(=O)C(C)(C)NC(=O)[C@H](CCC(N)=O)NC(=O)[C@@H](NC(=O)[C@](C)(Cc1ccccc1)NC(=O)[C@H](CC(=O)O)NC(=O)[C@H](CCCCNC(=O)COCCOCCNC(=O)COCCOCCNC(=O)CC[C@H](NC(=O)CCCCCCCCCCCCCCCCC(=O)O)C(=O)O)NC(=O)[C@H](C)NC(=O)[C@H](C)NC(=O)[C@H](CCCNC(=N)N)NC(=O)[C@H](CO)NC(=O)[C@H](CC(=O)O)NC(=O)[C@H](CC(C)C)NC(=O)[C@](C)(Cc1ccccc1)NC(=O)[C@H](CCCCN)NC(=O)[C@H](CO)NC(=O)[C@@H](NC(=O)[C@H](CC(=O)O)NC(=O)[C@H](CO)NC(=O)[C@@H](NC(=O)[C@](C)(Cc1ccccc1)NC(=O)[C@H](CO)NC(=O)CNC(=O)[C@H](Cc1c[nH]cn1)NC(=O)C(C)(C)NC(=O)[C@@H](N)Cc1c[nH]cn1)[C@@H](C)O)C(C)C)C(C)C)C(=O)N[C@@H](C)C(=O)N[C@@H](CC(N)=O)C(=O)N[C@H](C(=O)O)[C@@H](C)O` [Peptide 303] (H-H[Aib]HGS[αMeF]TSDVSK[αMeF]LDSRAAK([AEEA-AEEA-γGlu-C18 diacid])D[αMeF]VQ[Aib]IANT-OH), the EC50 in test [1] (setting [3]) came out at 0.0991 nM; in test [2] (setting [3]) it was 0.0996 nM. Further, in test [1] (Table 7), the “% Relative Potency Ratio” value worked out at 2.0.

With `CC[C@H](C)[C@H](NC(=O)[C@H](Cc1c[nH]c2ccccc12)NC(=O)[C@H](CCC(N)=O)NC(=O)[C@@H](NC(=O)[C@H](Cc1ccccc1)NC(=O)[C@H](CC(=O)O)NC(=O)[C@H](CCCCNC(=O)COCCOCCNC(=O)COCCOCCNC(=O)CC[C@H](NC(=O)CCCCCCCCCCCCCCCCC(=O)O)C(=O)O)NC(=O)[C@H](C)NC(=O)[C@H](C)NC(=O)[C@H](CCCNC(=N)N)NC(=O)[C@H](CO)NC(=O)[C@H](CC(=O)O)NC(=O)[C@H](CC(C)C)NC(=O)[C@](C)(Cc1ccccc1)NC(=O)[C@H](CCCCN)NC(=O)[C@H](CO)NC(=O)[C@@H](NC(=O)[C@H](CC(=O)O)NC(=O)[C@H](CO)NC(=O)[C@@H](NC(=O)[C@H](Cc1ccccc1)NC(=O)[C@@H](NC(=O)CNC(=O)[C@H](CCC(N)=O)NC(=O)[C@](C)(CO)NC(=O)[C@@H](N)Cc1c[nH]cn1)[C@@H](C)O)[C@@H](C)O)C(C)C)C(C)C)C(=O)N[C@@H](C)C(=O)N[C@@H](CC(N)=O)C(=O)N[C@H](C(N)=O)[C@@H](C)O` [Peptide 318], the EC50 came to 0.0553 nM in test [1] (setting [3]) and 12 nM in test [2] (setting [3]). The “% Relative Potency Ratio” value in test [1] (Table 7) worked out at 429.7.

Regarding `CC(C)C[C@H](NC(=O)[C@H](Cc1c[nH]c2ccccc12)NC(=O)[C@H](CCC(N)=O)NC(=O)[C@@H](NC(=O)[C@H](Cc1ccccc1)NC(=O)[C@H](CC(=O)O)NC(=O)[C@H](CCCNC(=N)N)NC(=O)[C@H](C)NC(=O)[C@H](CCCNC(=N)N)NC(=O)[C@H](CCCCNC(=O)COCCOCCNC(=O)COCCOCCNC(=O)CC[C@H](NC(=O)CC[C@H](NC(=O)CCCCCCCCCCCCCCCCC(=O)O)C(=O)O)C(=O)O)NC(=O)[C@@H](NC(=O)[C@H](CC(=O)O)NC(=O)[C@H](CC(C)C)NC(=O)[C@](C)(Cc1ccccc1)NC(=O)[C@H](CCCCN)NC(=O)[C@H](CO)NC(=O)[C@@H](NC(=O)[C@H](CC(=O)O)NC(=O)[C@H](CO)NC(=O)[C@@H](NC(=O)[C@H](Cc1ccccc1)NC(=O)[C@@H](NC(=O)CNC(=O)[C@H](CCC(N)=O)NC(=O)C(C)(C)NC(=O)[C@@H](N)Cc1c[nH]cn1)[C@@H](C)O)[C@@H](C)O)C(C)C)[C@@H](C)O)C(C)C)C(=O)N[C@@H](CC(C)C)C(=O)N[C@@H](CCC(=O)O)C(=O)NC(C)(C)C(=O)NCC(N)=O` [Peptide 428], the EC50 is 0.0331 nM in test [1] (setting [4]) and 0.0105 nM in test [2] (setting [4]). For the same compound, in test [1] (Table 6), the “% Relative Potency Ratio” value turned out to be 0.6.
